The values below come from patent US20260364101A1, “OLEUROPEIN IN THE MANAGEMENT OF CANCER” (FUNDACIÓN MIGUEL SERVET, priority 2023, published 2026).

One data set deals with TAMs. Kind of data set: ex vivo differentiated TAMs treated with compound, marker expression by flow cytometry (FIG. 1b). The settings on record: BML-275 500 nM. The format is cell-based, mouse. As for the experimental part: (§1) Immunosuppressive myeloid cell subsets resembling tumor-infiltrating subsets (g-MDSCs, m-MDSCs and TAMs) were differentiated from mouse bone marrow following published procedures using conditioning medium produced by LLC tumor cells stably expressing GMCSF and MCSF cells. g- and m-MDSCs were purified using the myeloid-derived suppressor cell isolation kit (Miltenyi Biotec, Bergisch, Germany) according to manufacturer's recommendations. MDSCs and TAMs were seeded with 500 nM BML-275 or 50 μM oleuropein and incubated for seven days.
(§2) Surface and intracellular staining were carried out as described before with the following fluorochrome-conjugated antibody clones: AF488 anti-CD49d (R1-2), PE anti-CD4 (GK1.5), APCanti-CD8(53-6.7), brilliant Violet 510™ anti-I-A/I-E (M5/114.15.2,PE/Cyanine7anti-Ly-6G (1A8), and APC anti-CD80 (16-10A1) (Biolegend), FITC anti-IL-12 (C15.6) and BV421 anti-IL-2 (JES6-5H4) (BD Bioscience), APC-Vio® 770 anti-Ly-6C (REA796), PE REAfinity™ anti-F4/80 (REA126), and APC anti-CD68 (REA886) (Miltenyi), PerCP-Cyanine5.5 Anti-Human/Mouse CD11b (M1/70) (Tonbo), and AF488 anti-IFNγ (Clone XMG1.2) (BD Pharmigen). For human cells, it was used the following fluorochrome-conjugated antibodies: PerCP-Cy5.5-anti-CD11b (integrina alfa M) (M1/70), Violet Fluor 450 anti-CD14 antibody (61D3) (Tonbo), PE anti-CD115 (CSF-1R) (9-4D2-1E4) (Biolegend), PE-Cy™7 anti-CD11c (Clone B-ly6) (BD Bioscience), and APC anti-HLA-DR (REA517) (Miltenyi).
(§3) Data were collected using the FACSCanto Flow Cytometer (BD Biosciences) for ex vivo and in vitro experiments at Navarrabiomed Biomedical Research Center and Cyroflex LX flow cytometer (Beckman Counter). Data were analyzed with Flowjo.
(In general: A flow cytometer gives signals particle by particle.)

For the next data set, the system named is MDSCs. Kind of data set: ex vivo differentiated MDSCs treated with compound, marker expression by flow cytometry (FIG. 1a). The settings on record: BML-275 500 nM alone or with oleuropein 50 μM; MDSCs. Type of data set: cell-based, mouse. As for the experimental part: as §1, §2, §3
Data set [1] deals with CD4 T cells. The experiment in a line: mixed lymphocyte reaction (MLR) with TAMs as stimulator cells (FIG. 1c,d). Type of data set: cell-based, mouse. The note with it: treated TAMs as stimulators; 5 days. As for the experimental part:
(§4) MLR were carried out following standard procedures. Briefly, 100,000 MDSCs or TAMs from C57BL/6 mice were co-cultured in 96-well plates with 100,000 lymphocytes from BALB/c mice. Co-cultured cells were treated with 50 µM oleuropein and compared with control vehicle. After 5 days, T-lymphocyte activation, differentiation and proliferation were assessed by flow cytometry. T-cell activation and proliferation markers (Ki-67) and pro-inflammatory cytokine production (IL-2 and IFNγ) were evaluated by flow cytometry in CD4 and CD8 T cells as described before.
as §2, with “For human cells, it was used the following fluorochrome-conjugated antibodies: PerCP-Cy5.5-anti-CD11b (integrina alfa M) (M1/70), Violet Fluor 450 anti-CD14 antibody (61D3) (Tonbo), PE anti-CD115 (CSF-1R) (9-4D2-1E4) (Biolegend), PE-Cy™7 anti-CD11c (Clone B-ly6) (BD Bioscience), and APC anti-HLA-DR (REA517) (Miltenyi).” left out

For data set [2], the system named is CD4 T cells. Kind of data set: mixed lymphocyte reaction (MLR) with MDSCs as stimulator cells (FIG. 1c,d). Type of data set: cell-based, mouse. The note with it: treated MDSCs as stimulators; 5 days. As for the experimental part:
as §4, §2

The subject of the next data set is MDSC and CD3 T cells. The note with it: related art; cited from earlier work.

`c1cc(-c2cnn3cc(-c4ccc(OCCN5CCCCC5)cc4)cnc23)ccn1` [BML-275, reference compound]: the “CD68 (M1 marker)” value in the data set on TAMs (AMPK inhibition in TAMs) was “increased”. Further, the “cells co-expressing MHC-II and CD80” value in the data set on TAMs (oleuropein 50 μM, TAMs) is reported as “significant elevation”. Further, the “expression of CD49d” value in the data set on MDSCs is “reduced”. Besides, the “CD4 T cell stimulation assessed by IFNγ and IL-2 production” value with CD4 T cells [1] and with CD4 T cells [2] was “weaker” throughout.
As to `Nc1ccn([C@@H]2O[C@H](CO)[C@@H](O)C2(F)F)c(=O)n1` [gemcitabine], the “effect on MDSC and CD3 T cells” value with MDSC and CD3 T cells was “simultaneously reduces the MDSC and the CD3 T cells”.
